Values of other authors, collected in US10654880B2, “Methods for preparation of glycosphingolipids and uses thereof” (priority 2011, dated 2020).

System: breast cancer tumors (4T1 cell line)
Details: breast cancer-bearing mice (4T1), relative to untreated group

In the case of `CCCCCCCCCCCCCCCCCCCCCCCCCC(=O)N[C@@H](CO[C@H]1O[C@H](CO)[C@H](O)[C@H](O)[C@H]1O)[C@H](O)[C@H](O)CCCCCCCCCCCCCC` [α-GalCer, alpha-galactosylceramide], the “inhibition of tumor growth rate” value is given as 50%.
